Measurements from ChEMBL document CHEMBL5365481, “Design, Synthesis, and Activity Evaluation of Novel Dual-Target Inhibitors with Antifungal and Immunoregulatory Properties” (J Med Chem, 2023).
The source made the active and inactive calls. The rule behind the calls is not given here.

Assays:
[1] = Toxicity in BALB/c mouse infected with Candida albicans ATCC SC5314 assessed as morphological changes in heart at 10 ug, ip for 14 days in presence of Biphenyl isopropyl ester by H and E staining based microscopy; type: organism-based; conditions: in vivo, 336 h, dose 10 µg, time 14 day
Candida albicans [2] = assay: In vivo antifungal activity against Candida albicans ATCC SC5314 infected in BALB/c mouse assessed as decrease in COX2 expression level at 10 ug, ip for 14 days in presence of Biphenyl isopropyl ester by Western blot analysis; type: functional, organism-based; conditions: dose 10.0 µg, time 14.0 day
Candida albicans [3] = assay: In vivo antifungal activity against Candida albicans ATCC SC5314 infected in BALB/c mouse assessed as decrease in PD-L1 expression level at 10 ug, ip for 14 days in presence of Biphenyl isopropyl ester by Western blot analysis; type: functional, organism-based; conditions: dose 10.0 µg, time 14.0 day
[4] = Toxicity in BALB/c mouse infected with Candida albicans ATCC SC5314 assessed as plasma AST level at 10 ug, ip for 14 days in presence of Biphenyl isopropyl ester; type: organism-based; conditions: in vivo, 336 h, dose 10 µg, time 14 day
Candida albicans [5] = assay: In vivo antifungal activity against Candida albicans ATCC SC5314 infected in BALB/c mouse assessed as decrease in COX2 expression level at 10 ug, ip for 14 days in presence of Biphenyl isopropyl ester by immunohistochemical analysis; type: functional, organism-based; conditions: dose 10.0 µg, time 14.0 day
[6] = Toxicity in BALB/c mouse infected with Candida albicans ATCC SC5314 assessed as morphological changes in spleen at 10 ug, ip for 14 days in presence of Biphenyl isopropyl ester by H and E staining based microscopy; type: organism-based; conditions: in vivo, 336 h, dose 10 µg, time 14 day
Candida albicans [7] = assay: In vivo antifungal activity against Candida albicans ATCC SC5314 infected in BALB/c mouse assessed as increase in body weight at 10 ug, ip for 14 days in presence of Biphenyl isopropyl ester; type: functional, organism-based; conditions: dose 10.0 µg, time 14.0 day
[8] = Toxicity in BALB/c mouse infected with Candida albicans ATCC SC5314 assessed as morphological changes in liver at 10 ug, ip for 14 days in presence of Biphenyl isopropyl ester by H and E staining based microscopy; type: organism-based; conditions: in vivo, 336 h, dose 10 µg, time 14 day
[9] = Toxicity in BALB/c mouse infected with Candida albicans ATCC SC5314 assessed as plasma BUN level at 10 ug, ip for 14 days in presence of Biphenyl isopropyl ester; type: organism-based; conditions: in vivo, 336 h, dose 10 µg, time 14 day
Candida albicans [10] = assay: In vivo antifungal activity against Candida albicans ATCC SC5314 infected in BALB/c mouse assessed as fold increase in CD3+ expression level in T cells at 10 ug, ip for 14 days in presence of Biphenyl isopropyl ester by immunohistochemical analysis; type: functional, T-cell; conditions: dose 10 µg, time 14 day
Candida albicans [11] = assay: In vivo antifungal activity against Candida albicans ATCC SC5314 infected in BALB/c mouse assessed as decrease in IFN-gamma expression level at 10 ug, ip for 14 days in presence of Biphenyl isopropyl ester by Western blot analysis; type: functional, organism-based; conditions: dose 10.0 µg, time 14.0 day
Candida albicans [12] = assay: In vivo antifungal activity against Candida albicans ATCC SC5314 infected in BALB/c mouse assessed as decrease in NLRP3 expression level at 10 ug, ip for 14 days in presence of Biphenyl isopropyl ester by Western blot analysis; type: functional, organism-based; conditions: dose 10.0 µg, time 14.0 day
[13] = Toxicity in BALB/c mouse infected with Candida albicans ATCC SC5314 assessed as plasma ALT level at 10 ug, ip for 14 days in presence of Biphenyl isopropyl ester; type: organism-based; conditions: in vivo, 336 h, dose 10 µg, time 14 day
[14] = Toxicity in BALB/c mouse infected with Candida albicans ATCC SC5314 assessed as morphological changes in kidney at 10 ug, ip for 14 days in presence of Biphenyl isopropyl ester by H and E staining based microscopy; type: organism-based; conditions: in vivo, 336 h, dose 10 µg, time 14 day
Cell membrane [15] = assay: Induction of cell membrane integrity disruption in Candida albicans ATCC SC5314 assessed as edema vacuoles at 1 microM/ml incubated for 48 to 72 hrs by TEM analysis; type: subcellular; conditions: time 48-72 hrs
Cell membrane [16] = assay: Induction of cell membrane integrity disruption in Candida albicans ATCC SC5314 assessed as accumulation of low density particulate matter at 1 microM/ml incubated for 48 to 72 hrs by TEM analysis; type: subcellular; conditions: time 48-72 hrs
Cell membrane [17] = assay: Induction of cell membrane integrity disruption in Candida albicans ATCC SC5314 assessed as disappearance of nuclei at 1 microM/ml incubated for 48 to 72 hrs by TEM analysis; type: subcellular; conditions: time 48-72 hrs
Cell membrane [18] = assay: Induction of cell membrane integrity disruption in Candida albicans ATCC SC5314 assessed as decrease in cell membrane thickness at 1 microM/ml incubated for 48 to 72 hrs by TEM analysis; type: subcellular; conditions: time 48-72 hrs
Cell membrane [19] = assay: Induction of cell membrane integrity disruption in Candida albicans ATCC SC5314 assessed as seepage of cell contents into external region at 1 microM/ml incubated for 96 hrs by TEM analysis; type: subcellular

Structure (SMILES)	Activity [1]	Activity (Candida albicans [2])	Activity (Candida albicans [3])	Activity [4] [IU/L]	Activity (Candida albicans [5])	Activity [6]	Activity (Candida albicans [7])	Activity [8]	Activity [9] [nmol/L]	fold change (FC) (Candida albicans [10])	Activity (Candida albicans [11])	Activity (Candida albicans [12])	Activity [13] [IU/L]	Activity [14]	Activity (Cell membrane [15])	Activity (Cell membrane [16])	Activity (Cell membrane [17])	Activity (Cell membrane [18])	Activity (Cell membrane [19])
OC(Cn1cncn1)(Cn1cncn1)c1ccc(F)cc1F [FLUCONAZOLE]	Non-Toxic	Active	Active	71.9	Active	Non-Toxic	Active	Non-Toxic	22.8	1.46	Active	Active	37.2	Non-Toxic	–	–	–	–	–
CC(=O)c1ccc(C(=O)N2CCC(NC(=O)c3nc(-n4cncn4)c4ccccc4n3)CC2)cc1	–	–	–	–	–	–	–	–	–	–	–	–	–	–	Active	Active	Active	Active	Active
